Results published in US10912780B2, “Heterocyclic compounds useful as anti-bacterial agents and method for production thereof” (Bugworks Research, Inc., priority 2017, dated 2021).
pIC50: −log10 of the molar value. ≈ marks a conversion by molar mass, not a printed value. Where “and” joins values, the source holds several entries; their conditions need not be identical. Equal entries are not always repeated.

Key:
[1] = test system: P. aeruginosa [ATCC27853]; assay: Neutropenic lung infection model in rat; format: in vivo; details: for MEAN ± SD (Log 10 CFU/g Lung) / Mean Log 10CFU/g lung reduction (wrt 4 h PI control 5.78 Log10CFU/g lung) / Log 10 CFU/g Lung: neutropenic rat, 24 h post infection; for Log 10 CFU/g Lung: individual animals
Experimental: The purpose of this study was to evaluate the efficacy of example 15 against P. aeruginosa [ATCC27853], following single dose intravenous infusion doses of 10, 30 and 100 mg/kg in a neutropenic lung infection model in rats
Prior to the start of the infection process, all animals were divided into different groups. All grouped cages of animals were carried to a procedure room, close to a biological safety cabinet. All infections were conducted in a biological safety cabinet, with appropriate personnel protection. Animals were placed into an induction chamber and anaesthesia was induced by exposing the animals to 3-5% Isoflurane in an oxygen flow set at approximately (˜) 1 liter per minute (LPM). Once the animals were in a sufficiently deep plane of anaesthesia as monitored by pedal reflex, they were removed and infected (2). […] A gentle mixing of inoculum between two animals was followed for uniform distribution.
The IV formulation vehicle used for example 15 was 10% of L-ascorbic acid in fresh MilliQ water (w/v) with pH adjusted to ˜4.0 with 1N Sodium hydroxide solution (w/v), and the dose volume was 10 mL/kg. Meropenem was formulated in saline. […] The dose levels of the test Example 15 were 10, 30 and 100 mg/kg.
All the animals in groups were sacrificed at 24 h post infection, as specified in experimental design, by an overdose of CO2 in an appropriate exposure chamber. The group 1 animals were sacrificed at 4 hrs post infection. The euthanized animals were dipped into 70% ethanol for surface decontamination. Entire Lung was aseptically isolated, weighed and placed into 1 mL of sterile CSDB broth, and homogenized (Omni Tip (220 V hand held)). Serial ten-fold dilutions of the lungs homogenates were prepared in sterile CSD broth and 0.05 mL of four dilutions for each tissue was plated onto CSDA agar plates. Bacterial colonies were enumerated following overnight incubation at 37° C. Bacterial densities were estimated as Log10 CFU/g lung. The Mean±SD Log10 CFU/g lung was estimated in each group. Significant differences between group means and control were analyzed by one way ANOVA, followed by a Dunnett's multiple comparison test, using Graphpad Prism at 95% confidence levels.

[2] = Stability of IV formulation at room temperature; format: physicochemical; details: IV formulation in 10% L-ascorbic acid, pH~4
Experimental: Procedure: Weighed appropriate amount of the Example 15 to be tested and dissolved in 1 ml of the 10% ascorbic acid solution. (Vortex for a few seconds if the compound doesn't dissolve instantly). Sonicated the compound solution at room temperature for 5 minutes using a bath sonicator to obtain a visually clear solution. The above prepared solution was pH adjusted to pH˜4 with 1N NaOH solution (w/v) with sonication (final Formulation pH˜4).

E. coli clinical strains = assay: Antibacterial susceptibility studies (MIC50 and MIC90) with clinical strains, CLSI guidelines; format: cell-based
E. coli [ATCC25922] = assay: Urinary tract infection (UTI) rat model; format: in vivo; details: for MEAN ± SD (Log10 CFU/g kidneys) / Mean Log10 CFU/g kidney reduction (wrt 4 h PI control: 6.03 Log10 CFU/g kidneys) / MEAN ± SD (Log 10 CFU/ml Bladder) / Mean Log10 CFU/ml Bladder reduction (wrt 4 h PI control: 6.49 CFU/ml Bladder) / Log10 CFU/g (Left Kidney) / Log10 CFU/g (Right Kidney) / Log 10 CFU/ml Bladder: i.v., 1 h infusion, rat UTI, 24 h post infection; for Log10 CFU/g (Left Kidney) / Log10 CFU/g (Right Kidney) / Log 10 CFU/ml Bladder: individual animals
Experimental: The purpose of this study is to assess the efficacy of Example 15 against E. coli [ATCC25922] following single dose intravenous infusion doses of 3, 10 and 30 mg/kg in a Urinary Tract Infection Rat Model
Prior to the start of the infection process all animals were divided into different groups. All grouped cages of animals were carried to a procedure room, close to a biological safety cabinet. All infections were conducted in a biological safety cabinet, with appropriate personnel protection. Animals were anaesthetized by intraperitoneal injection of ketamine & xylazine (60+10 mg/kg i.p.) cocktail. Once the animals were in a sufficiently deep plane of anaesthesia as monitored by pedal reflex, the abdominal wall of each rat was shaved with electric clippers and the skin was cleansed with 10% povidine iodine. After a 1.5 to 2 cm lower abdominal wall incision, the abdominal wall muscles were separated with blunt dissection. […] After the replacement of the bladder to its original location, the abdominal muscles were approximated using suture and the skin was closed. The wounds were cleansed using 10% povidine iodine.
The IV formulation vehicle used was 10% of L-ascorbic acid in fresh MilliQ water (w/v) with pH adjusted to 4.0 with 1N Sodium hydroxide solution (w/v), and the dose volume was 10 mL/kg. Meropenem was prepared in MilliQ water and the pH of solution was adjusted to 4.5 using HCl. Four hours post infection, animals were dosed intravenously, as single doses (for test compounds), as a constant rate infusion, under Ketamine 60 mg/kg IP+Xylazine 10 mg/kg IP anesthesia, at a dose volume of 10 ml/kg, at the rate of 0.03 ml/min. The dose levels of the test compounds were 3, 10 and 30 mg/kg. Meropenem was administered as a single bolus dose at a dose volume of 5 ml/kg. All the animals were sacrificed at 24 h post infection, as specified in experimental design, by an overdose of CO2 in an appropriate exposure chamber. The group 1 animals were sacrificed at 4 h post infection.
The euthanized animals were dipped into 70% ethanol for surface decontamination. The organs were removed aseptically; the bladder was cut away near the urethra, and the kidneys were removed by blunt dissection to avoid bleeding. The bladder and each kidney separately were be homogenized in PBS. The CFU per milliliter homogenate of bladder, & kidney were determined after 18 to 24 h of incubation at 37° C.

E. coli DNA gyrase = E. coli DNA gyrase (Escherichia coli, UniProt P0AES4+P0AES6); assay: biochemical; details: supercoiling assay
[3] = test system: K. pneumoniae clinical strains; assay: Antibacterial susceptibility studies (MIC50 and MIC90) with clinical strains, CLSI guidelines; format: cell-based

Sequence of E. coli DNA gyrase (P0AES4 whole entry, one chain of several): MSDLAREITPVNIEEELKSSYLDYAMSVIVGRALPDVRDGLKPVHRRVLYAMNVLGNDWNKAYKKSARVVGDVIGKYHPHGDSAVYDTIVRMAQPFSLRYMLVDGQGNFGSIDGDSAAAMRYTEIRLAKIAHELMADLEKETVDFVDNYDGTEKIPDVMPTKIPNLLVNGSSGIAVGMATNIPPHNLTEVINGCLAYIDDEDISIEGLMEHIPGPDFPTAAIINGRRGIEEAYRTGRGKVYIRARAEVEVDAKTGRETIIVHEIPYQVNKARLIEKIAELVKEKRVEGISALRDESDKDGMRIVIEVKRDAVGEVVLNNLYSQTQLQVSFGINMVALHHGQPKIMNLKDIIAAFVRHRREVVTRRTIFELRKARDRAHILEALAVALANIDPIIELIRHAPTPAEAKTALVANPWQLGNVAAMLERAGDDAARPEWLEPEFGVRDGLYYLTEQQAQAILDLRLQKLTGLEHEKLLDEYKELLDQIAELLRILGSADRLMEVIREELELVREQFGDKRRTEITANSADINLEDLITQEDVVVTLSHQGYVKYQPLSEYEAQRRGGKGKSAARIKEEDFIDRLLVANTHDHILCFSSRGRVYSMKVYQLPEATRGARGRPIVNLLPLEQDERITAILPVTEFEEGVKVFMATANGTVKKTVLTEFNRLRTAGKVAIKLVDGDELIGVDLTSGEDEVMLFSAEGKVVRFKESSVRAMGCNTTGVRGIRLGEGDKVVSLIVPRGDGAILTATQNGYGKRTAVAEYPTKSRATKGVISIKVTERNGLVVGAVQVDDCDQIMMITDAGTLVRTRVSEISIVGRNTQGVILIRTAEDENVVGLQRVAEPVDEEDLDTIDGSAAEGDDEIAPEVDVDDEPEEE

SMILES: Cn1c(=O)ccc2ccc(F)c(CCNC[C@H]3CN(c4cnc5c(n4)NC(=O)CO5)C(=O)O3)c21 [Example 15, (S)-6-(5-(((2-(7-fluoro-1-methyl-2-oxo-1,2-dihydroquinolin-8-yl)ethyl)amino)methyl)-2-oxooxazolidin-3-yl)-2H-pyrazino[2,3-b][1,4]oxazin-3(4H)-one]
- MEAN ± SD (Log 10 CFU/g Lung) ([1]; 10 mg/kg, i.v. 1 h infusion): 6.63 ± 0.15 Log 10 CFU/g Lung
- Mean Log 10CFU/g lung reduction (wrt 4 h PI control 5.78 Log10CFU/g lung) ([1]; 10 mg/kg, i.v. 1 h infusion): −0.85 Log10CFU/g lung
- MEAN ± SD (Log 10 CFU/g Lung) ([1]; 30 mg/kg, i.v., 1 h infusion): 4.74 ± 0.08 Log 10 CFU/g Lung
- Mean Log 10CFU/g lung reduction (wrt 4 h PI control 5.78 Log10CFU/g lung) ([1]; 30 mg/kg, i.v., 1 h infusion): 1.04 Log10CFU/g lung
- MEAN ± SD (Log 10 CFU/g Lung) ([1]; 100 mg/kg, i.v., 1 h infusion): 4.76 ± 0.2 Log 10 CFU/g Lung
- Mean Log 10CFU/g lung reduction (wrt 4 h PI control 5.78 Log10CFU/g lung) ([1]; 100 mg/kg, i.v., 1 h infusion): 1.02 Log10CFU/g lung
- Log 10 CFU/g Lung ([1]; 10 mg/g, i.v. 1 h infusion): 6.68 Log 10 CFU/g Lung and 6.75 Log 10 CFU/g Lung and 6.47 Log 10 CFU/g Lung
- Log 10 CFU/g Lung ([1]; 30 mg/kg, i.v., 1 h infusion): 4.79 Log 10 CFU/g Lung and 4.65 Log 10 CFU/g Lung and 4.78 Log 10 CFU/g Lung
- Log 10 CFU/g Lung ([1]; 100 mg/kg, i.v., 1 h infusion): 4.84 Log 10 CFU/g Lung and 4.53 Log 10 CFU/g Lung and 4.90 Log 10 CFU/g Lung
- efficacy compared to the early infection control (in words) ([1]; rat lung model, 10 mg/kg): bacteriostatic
- efficacy with respect to early infection control (in words) ([1]; rat lung model, 30 mg/kg and 100 mg/kg): significant efficacy
- efficacy versus standard drug (in words) ([1]; rat lung model, similar dose (30 mg/kg)): comparable to standard drug meropenem
- IV formulation stable at room temperature [2]: more than 24 hours
- MIC ATCC25922 (E. coli clinical strains; E. coli reference strain ATCC25922, no unit in this line (MIC50/MIC90 lines: μg/ml)): 0.06 µg/mL (≈ 0.128 µM)
- MIC50 (E. coli clinical strains; Escherichia coli): 0.06 µg/mL (≈ 0.128 µM)
- MIC90 (E. coli clinical strains; Escherichia coli): 0.25 µg/mL (≈ 0.534 µM)
- Minimum (E. coli clinical strains; lowest MIC among E. coli clinical strains (201 strains; Example 15: 176), no unit in this line): 0.03
- MEAN ± SD (Log10 CFU/g kidneys) (E. coli [ATCC25922]; 3 mg/kg): 7.13 ± 0.62 Log10 CFU/g kidneys
- Mean Log10 CFU/g kidney reduction (wrt 4 h PI control: 6.03 Log10 CFU/g kidneys) (E. coli [ATCC25922]; 3 mg/kg): −1.1 Log10 CFU/g kidneys
- MEAN ± SD (Log 10 CFU/ml Bladder) (E. coli [ATCC25922]; 3 mg/kg): 7.01 ± 0.23 Log 10 CFU/ml
- Mean Log10 CFU/ml Bladder reduction (wrt 4 h PI control: 6.49 CFU/ml Bladder) (E. coli [ATCC25922]; 3 mg/kg): −0.52 Log10 CFU/ml
- MEAN ± SD (Log10 CFU/g kidneys) (E. coli [ATCC25922]; 10 mg/kg): 5.82 ± 0.94 Log10 CFU/g kidneys
- Mean Log10 CFU/g kidney reduction (wrt 4 h PI control: 6.03 Log10 CFU/g kidneys) (E. coli [ATCC25922]; 10 mg/kg): 0.21 Log10 CFU/g kidneys
- MEAN ± SD (Log 10 CFU/ml Bladder) (E. coli [ATCC25922]; 10 mg/kg): 5.85 ± 0.27 Log 10 CFU/ml
- Mean Log10 CFU/ml Bladder reduction (wrt 4 h PI control: 6.49 CFU/ml Bladder) (E. coli [ATCC25922]; 10 mg/kg): 0.64 Log10 CFU/ml
- MEAN ± SD (Log10 CFU/g kidneys) (E. coli [ATCC25922]; 30 mg/kg): 4.46 ± 0.52 Log10 CFU/g kidneys
- Mean Log10 CFU/g kidney reduction (wrt 4 h PI control: 6.03 Log10 CFU/g kidneys) (E. coli [ATCC25922]; 30 mg/kg): 1.57 Log10 CFU/g kidneys
- MEAN ± SD (Log 10 CFU/ml Bladder) (E. coli [ATCC25922]; 30 mg/kg): 4.80 ± 0.17 Log 10 CFU/ml
- Mean Log10 CFU/ml Bladder reduction (wrt 4 h PI control: 6.49 CFU/ml Bladder) (E. coli [ATCC25922]; 30 mg/kg): 1.69 Log10 CFU/ml
- Log10 CFU/g (Left Kidney) (E. coli [ATCC25922]; 3 mg/kg): 6.81 Log10 CFU/g and 6.44 Log10 CFU/g and 6.48 Log10 CFU/g
- Log10 CFU/g (Right Kidney) (E. coli [ATCC25922]; 3 mg/kg): 7.51 Log10 CFU/g and 7.68 Log10 CFU/g and 7.86 Log10 CFU/g
- Log 10 CFU/ml Bladder (E. coli [ATCC25922]; 3 mg/kg): 5.54 Log 10 CFU/ml and 6.79 Log 10 CFU/ml and 7.00 Log 10 CFU/ml
- Log10 CFU/g (Left Kidney) (E. coli [ATCC25922]; 10 mg/kg): 4.69 Log10 CFU/g and 5.68 Log10 CFU/g and 4.80 Log10 CFU/g
- Log10 CFU/g (Right Kidney) (E. coli [ATCC25922]; 10 mg/kg): 6.66 Log10 CFU/g and 6.13 Log10 CFU/g and 6.97 Log10 CFU/g
- Log 10 CFU/ml Bladder (E. coli [ATCC25922]; 10 mg/kg): 5.54 Log 10 CFU/ml and 5.97 Log 10 CFU/ml and 6.05 Log 10 CFU/ml
- Log10 CFU/g (Left Kidney) (E. coli [ATCC25922]; 30 mg/kg): 4.98 Log10 CFU/g and 3.84 Log10 CFU/g and 4.12 Log10 CFU/g
- Log10 CFU/g (Right Kidney) (E. coli [ATCC25922]; 30 mg/kg): 4.66 Log10 CFU/g and 4.05 Log10 CFU/g and 5.11 Log10 CFU/g
- Log 10 CFU/ml Bladder (E. coli [ATCC25922]; 30 mg/kg): 4.61 Log 10 CFU/ml and 4.91 Log 10 CFU/ml and 4.90 Log 10 CFU/ml
- efficacy compared to the 4 h PI control (in words) (E. coli [ATCC25922]; rat UTI model, 3 mg/kg): bacteriostatic
- efficacy with respect to 4 h PI control (in words) (E. coli [ATCC25922]; rat UTI model, 10 and 30 mg/kg): significant dose dependent
- efficacy versus standard drug (in words) (E. coli [ATCC25922]; rat UTI model, similar dose (30 mg/kg)): comparable to standard drug meropenem
- pIC50 (E. coli DNA gyrase): 8.34
- MIC ATCC13883 ([3]; K. pneumoniae reference strain ATCC13883, no unit in this line): 0.03 µg/mL (≈ 0.064 µM)
- MIC50 ([3]; Klebsiella pneumoniae): 0.5 µg/mL (≈ 1.07 µM)
- MIC90 ([3]; Klebsiella pneumoniae): 1 µg/mL (≈ 2.13 µM)
- Minimum ([3]; lowest MIC among K. pneumoniae clinical strains (211 strains; Example 15: 176), no unit in this line): 0.06
